# Read-outs that look alike come from different tables or passages of the source.
# Key:
# HIV protease = target: T1, HIV protease (Human immunodeficiency virus type 1 group M subtype B, UniProt P04585); assay: biochemical; set-up: species or system HIV-1
# T1 construct: plasmid containing HIV protease under the control of an inducible T7 promoter; made in house; host or cells: E. coli (inclusion bodies, T7 promoter)
# Protocol: HIV Protease Inhibition Assay—Spectroscopic Method
# Inclusion bodies were solubilized in 8M urea, 50 mM tris pH 8.0. Protease activity was recovered by dilution 20-fold into buffer containing 50 mM sodium acetate pH 5.5, 1 mM EDTA, 10% glycerol and 5% ethylene glycol. Enzyme was used at a final concentration of 1.0-10 ug/ml.
# Stock solutions of 10 mM were prepared in DMSO.
# All further dilutions were done in DMSO.
# HIV-1 (RF) in MT-2 cells = assay: microbe, parasite or virus in culture; assay type: cell-based
# In short: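 HIV-1 laboratory strains (RF, MN, IIIB) grown in H9 cells in RPMI 1640 with 5% FCS; infections in MT-2 cells. Viral RNA quantified by hybridization with biotinylated gag/pol capture probes on streptavidin plates and alkaline phosphatase-conjugated reporter probes; BH10 gag-pol in vitro transcripts serve as RNA standards.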
# [1] = Human immunodeficiency virus 1, MT2, Table 1e, read-out: IC90
Compound,"Ki (HIV protease; Table 1e, read-out: Ki)",IC90 (HIV-1 (RF) in MT-2 cells; [1]),"Ki (HIV protease; Table 2j, read-out: Ki)",further results
O=C1N(CC2CC2)C(C(O)Cc2ccccc2)[C@@H](O)[C@@H](Cc2ccccc2)N1CC1CC1 (some centres unmarked) [Example 7Z],10 to 1000 nM,< 10 µg/mL,,
CS(=O)(=O)OC1C(O)C(Cc2ccccc2)N(Cc2ccc3ccccc3c2)C(=O)N(Cc2ccc3ccccc3c2)C1Cc1ccccc1 (centres unmarked) [Example 7o],,,,"Ki (HIV protease; Table 1d, upper part, read-out: Ki): 10 to 1000 nM; IC90 (HIV-1 (RF) in MT-2 cells; Human immunodeficiency virus 1, MT2, 24 h, Table 1d, upper part, read-out: IC90): < 10 µg/mL"
C=CCN1C(=O)N(CC=C)[C@H](Cc2ccccc2)[C@H](O)[C@H]1[C@H](O)Cc1ccccc1 [Example 8AA],10 to 1000 nM,,,
O=C1N(Cc2ccc(CO)cc2)[C@H](CCc2ccccc2)C[C@@H](Cc2ccccc2)N1Cc1ccc(CO)cc1 [Example 8AC],10 to 1000 nM,< 10 µg/mL,,
O=C1N(Cc2ccccc2)C(CCc2ccccc2)[C@@H](O)[C@@H](Cc2ccccc2)N1Cc1ccccc1 (some centres unmarked) [Example 8AD],10 to 1000 nM,< 10 µg/mL,,
N#Cc1cccc(CN2C(=O)N(Cc3cccc(C#N)c3)[C@H](Cc3ccccc3)[C@H](O)C2CCc2ccccc2)c1 (some centres unmarked) [Example 8AN],,,,Ki (HIV protease; Ki): > 1000 nM; IC90 (HIV-1 (RF) in MT-2 cells; Table 1e): + (+=>100 μg/mL)
NC(=O)c1cccc(CN2C(=O)N(Cc3cccc(C(N)=O)c3)C(Cc3ccccc3)C(O)C2CCc2ccccc2)c1 (centres unmarked) [Example 8AP],> 1000 nM,> 100 µg/mL,,
O=C1N(CC2CC2)C(C(F)Cc2ccccc2)[C@@H](O)[C@@H](Cc2ccccc2)N1CC1CC1 (some centres unmarked) [Example 8B],10 to 1000 nM,< 10 µg/mL,,
COCCOCO[C@H]1[C@@H](Cc2ccccc2)N(Cc2ccc3ccccc3c2)C(=O)N(Cc2ccc3ccccc3c2)[C@@H]1C(F)Cc1ccccc1 (some centres unmarked) [Example 8D],10 to 1000 nM,,,
O=C1N(Cc2cccc(OCc3ccccc3)c2)C(Cc2ccccc2)C(O)C(C(F)Cc2ccccc2)N1Cc1cccc(OCc2ccccc2)c1 (centres unmarked) [Example 8E],10 to 1000 nM,,,
O=C1N(Cc2cccc(O)c2)C(C(F)Cc2ccccc2)[C@@H](O)[C@@H](Cc2ccccc2)N1Cc1cccc(O)c1 (some centres unmarked) [Example 8F],,< 10 µg/mL,,Ki (HIV protease; Ki): 10 to 1000 nM
N#Cc1cccc(CN2C(=O)N(Cc3cccc(C#N)c3)[C@H](Cc3ccccc3)[C@H](O)C2CCc2ccccc2)c1 (some centres unmarked) [Example 8O],,,,Ki (HIV protease; Ki): 10 to 1000 nM; IC90 (HIV-1 (RF) in MT-2 cells; Table 1e): +++ (+++=<10 μg/mL)
CC(=O)c1cccc(CN2C(=O)N(Cc3cccc(C(C)=O)c3)[C@H](Cc3ccccc3)[C@H](O)[C@H]2CCc2ccccc2)c1 [Example 8P],,< 10 µg/mL,,Ki (HIV protease; Ki): < 10 nM
O=C1N[C@H](C(O)Cc2ccccc2)[C@@H](O)[C@@H](Cc2ccccc2)N1Cc1ccccc1 (some centres unmarked) [Example 8Q],10 to 1000 nM,,,IC90 (HIV-1 (RF) in MT-2 cells; Table 1e): ++ (++=10 to 100 μg/mL)
O=C1N(Cc2cccc(CO)c2)C(Cc2ccccc2)C(O)C(C(Br)Cc2ccccc2)N1Cc1cccc(CO)c1 (centres unmarked) [Example 8V],10 to 1000 nM,< 10 µg/mL,,
O=C1N(Cc2cccc(-c3noc(C(F)(F)F)n3)c2)[C@H](CCc2ccccc2)[C@@H](O)[C@@H](Cc2ccccc2)N1Cc1cccc(-c2noc(C(F)(F)F)n2)c1 [Example 8X],10 to 1000 nM,10 to 100 µg/mL,,
O=C1N(Cc2cccc(CO)c2)[C@H](CCc2ccccc2)[C@@H](O)[C@@H](Cc2ccccc2)N1Cc1cccc(CO)c1 [Example 8Z],,< 10 µg/mL,,Ki (HIV protease; Ki): < 10 nM
O=C1NC(Cc2ccccc2)C(O)C2C(Cc3ccccc3)N12 (centres unmarked) [Example 21A],,,> 1000 nM,IC90 (HIV-1 (RF) in MT-2 cells; Table 2j): ++/+ (The ++/+ is used in the cases where an IC90 was determined to be >50 μg/mL)
CC(=O)OC1C(Cc2ccccc2)N(Cc2ccccc2)C(=O)N2C(Cc3ccccc3)C12 (centres unmarked) [Example 21B],,,> 1000 nM,IC90 (HIV-1 (RF) in MT-2 cells; Table 2j): ++/+ (The ++/+ is used in the cases where an IC90 was determined to be >50 μg/mL)
O=C1N(Cc2ccccc2)C(Cc2ccccc2)C(OCc2ccccc2)C2C(Cc3ccccc3)N12 (centres unmarked) [Example 21C],,,10 to 1000 nM,
O=C1N(Cc2ccccc2)C(Cc2ccccc2)C(O)C2C(Cc3ccccc3)N12 (centres unmarked) [Example 21D],,,> 1000 nM,IC90 (HIV-1 (RF) in MT-2 cells; Table 2j): ++/+ (The ++/+ is used in the cases where an IC90 was determined to be >50 μg/mL)
O=C1N(Cc2cccc(OCc3ccccc3)c2)C(Cc2ccccc2)C(O)C2C(Cc3ccccc3)N12 (centres unmarked) [Example 21E],,,> 1000 nM,IC90 (HIV-1 (RF) in MT-2 cells; Table 2j): ++/+ (The ++/+ is used in the cases where an IC90 was determined to be >50 μg/mL)
N#Cc1cccc(CN2C(=O)N3C(Cc4ccccc4)C3C(O)C2Cc2ccccc2)c1 (centres unmarked) [Example 21F],,,> 1000 nM,IC90 (HIV-1 (RF) in MT-2 cells; Table 2j): + (+=>100 μg/mL)
NC(=O)c1cccc(CN2C(=O)N3C(Cc4ccccc4)C3C(O)C2Cc2ccccc2)c1 (centres unmarked) [Example 21G],,,10 to 1000 nM,IC90 (HIV-1 (RF) in MT-2 cells; Table 2j): ++ (++=10 to 100 μg/mL)
NC(=NO)c1cccc(CN2C(=O)N3C(Cc4ccccc4)C3C(O)C2Cc2ccccc2)c1 (centres unmarked) [Example 21H],,,10 to 1000 nM,IC90 (HIV-1 (RF) in MT-2 cells; Table 2j): +++ (+++=<10 μg/mL)
O=C1N(Cc2cccc(O)c2)C(Cc2ccccc2)C(O)C(Cc2ccccc2)N1Cc1cccc(O)c1 (centres unmarked) [Example 22A],,,,"Ki (HIV protease; Table 2k, read-out: Ki): 10 to 1000 nM"

# From patent USRE37781E1, “Substituted cyclic carbonyls and derivatives thereof useful as retroviral protease inhibitors” (DuPont Pharmaceuticals Company, priority 1991, dated 2002)
